According to paper PMC8348236, “Improving the Utility of a Dynorphin Peptide Analogue Using Mannosylated Glycoliposomes” (International Journal of Molecular Sciences, 2021):

Columns and labels:
KOR [1] = target: T1, KOR (Mus musculus, UniProt P33534); assay: In vivo striatal dopamine modulation after intranasal administration; settings: female BALB/c mice, 2.0 µg dynantin, 20 min after administration, LC/MS, average ± SD of 5 mice
Method: The ability of the glycoliposome delivery systems to improve both the delivery and activity of dynantin in the brain was studied in an in vivo mouse model. Female BALB/c mice (5 per group) were intranasally administered dynantin (2.0 µg dose) alone or entrapped in either DS1 or DS2. Mice were sacrificed 20 min later and blood (sera), lungs and brains were collected. […] Striatum tissue was immediately removed and neurotransmitter levels analyzed by LC/MS.
Dynantin (2.0 µg total dose) was administered intranasally to female BALB/c mice (5 per group) either alone or entrapped with DS1 or DS2 (1:5 ratio of peptide: particles). The mice were euthanized 20 min after administration and the lung, brain, and blood (sera) were collected. Brains were immediately dissected on ice to obtain striatum tissue from which dopamine was extracted and its levels analyzed by LC/MS in the presence of 0.1% formic acid (A). […]
For each mouse, blood was placed in sera tubes, which were spun at 10,000 rpm for 5 min and sera collected. […] The amount of dopamine extracted was analyzed via LC/MS (5 µL injections) and quantified using the dopamine: dopamine-D2 peak area ratio and a standard curve that was generated using increasing concentrations of dopamine in the presence of a set concentration of the dopamine-D2 internal standard. […]

in vivo = settings: female, BALB/c, mouse, inhaled or intranasal, 2 ug
[2] = female BALB/c mice, intranasal, 2.0 µg, 20 min; average ± SD of 5 mice
KOR [3] = target: T1, KOR; assay: In vitro dopamine modulation in fresh mouse striatum homogenates; settings: mouse (C57BL/6) striatal homogenate, 90 min, 4 °C in the dark, LC/MS, average ± SD, n = 5, PBS control 0.54 ± 0.07
Method: The gently homogenized tissue was treated with either PBS or dynantin at 1 and 10 µM concentrations for 90 min, after which dopamine levels were analyzed.
Striatal tissue was collected from the brains of sacrificed mice (n = 15), gently homogenized and then treated with either PBS (60 µL, n = 5) or dynantin in PBS at a concentration of either 1 µM (60 µL, n = 5) or 10 µM (60 µL, n = 5) for 90 min at 4 °C in the dark. Dopamine was extracted and its levels analyzed by LC/MS in the presence of 0.1% formic acid.
Analyses were performed using an Acquity Class H UPLC system with an Acquity QDa detector (Waters Limited, Mississauga, ON, Canada). Separations took place on an Acquity UPLC BEH C18 column, 1.7 µm, 100 mm × 2.1 mm(Waters Limited, Mississauga, ON, Canada), and were achieved using a binary gradient elution (Table 3) of water and acetonitrile (both with 0.1% formic acid, v/v) and a uniform flow rate of 0.4 mL/min. […]
Male C57BL/6 mice (n = 15) were sacrificed by CO2 asphyxiation and cervical dislocation. […] The amount of dopamine extracted was analyzed via LC/MS (5 µL injections) and quantified using the dopamine: dopamine-D2 peak area ratio and a standard curve that was generated using increasing concentrations of dopamine in the presence of a set concentration of the dopamine-D2 internal standard. […]

[4] = peptide without delivery system; cited from earlier work
Source text: Initially, the ability of DS1 and DS2 to entrap and protect dynantin from proteolytic degradation in human plasma ex vivo was compared (Figure 3A).

T1 sequence (P33534 whole entry): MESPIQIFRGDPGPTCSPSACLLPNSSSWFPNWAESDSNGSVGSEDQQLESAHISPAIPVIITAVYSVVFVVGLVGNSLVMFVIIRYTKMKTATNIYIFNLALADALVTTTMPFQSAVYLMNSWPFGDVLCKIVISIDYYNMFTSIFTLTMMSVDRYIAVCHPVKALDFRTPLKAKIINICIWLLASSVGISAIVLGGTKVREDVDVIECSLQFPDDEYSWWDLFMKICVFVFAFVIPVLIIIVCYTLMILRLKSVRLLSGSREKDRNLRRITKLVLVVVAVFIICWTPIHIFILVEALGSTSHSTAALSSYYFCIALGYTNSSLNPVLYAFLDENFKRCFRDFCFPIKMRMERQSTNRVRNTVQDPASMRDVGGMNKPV

CC[C@H](C)[C@H](NC(=O)[C@H](CCCNC(=N)N)NC(=O)[C@H](CCCNC(=N)N)NC(=O)[C@H](CC(C)C)NC(=O)[C@H](Cc1ccccc1)NC(=O)CNC(=O)CNC(=O)[C@@H](C)Cc1c(C)cc(O)cc1C)C(=O)N[C@@H](CCCNC(=N)N)C(=O)N1CCC[C@H]1C(=O)N[C@@H](CCCCN)C(N)=O [Dynantin]
striatal dopamine level in vivo (KOR [1]): 0.58 ± 0.05 ng/mg | tissue level at time at 20 min (in vivo; brain (remaining tissue after removal of striatum)): 560 ± 200 ng/g | tissue level at time at 20 min (in vivo; lung): 560 ± 120 ng/g | level at 20 min (in vivo; serum): 1300 ± 160 ng/mL | percentage of total dose recovered, Brain [2]: 8.15 ± 3.06% | percentage of total dose recovered, Lung [2]: 4.93 ± 0.89% | percentage of total dose recovered, Sera [2]: 21.66 ± 3.99% | striatal dopamine level, 1 µM dynantin (KOR [3]; 1 µM in PBS): 0.78 ± 0.10 ng/mg | striatal dopamine level, 10 µM dynantin (KOR [3]; 10 µM in PBS): 0.98 ± 0.09 ng/mg | time to rapid and complete degradation in human plasma [4]: ≤ 12 h
